Source: the NIST ThermoML archive (doi:10.1021/je800560b)
Several values for one entry are separate records, joined by “and”; a condition that tells them apart may be missing. Equal values may be shown once. Numbers after ± are expanded uncertainties.

Settings: Liquid

O=[Si] [silicon monooxide]
Settings | vapor or sublimation pressure
1301 K | 0.00029 ± 5e-05 kPa and 0.00016 ± 9e-05 kPa
1315 K | 0.0004 ± 7e-05 kPa and 0.00024 ± 6e-05 kPa
1325 K | 0.0005 ± 8e-05 kPa and 0.00032 ± 7e-05 kPa
1335 K | 0.00064 ± 9e-05 kPa and 0.0004 ± 8e-05 kPa
1350 K | 0.00088 ± 0.00013 kPa and 0.00089 ± 0.00014 kPa and 0.00057 ± 0.00012 kPa
1364 K | 0.00123 ± 0.00031 kPa and 0.00082 ± 0.00021 kPa
1374 K | 0.00155 ± 0.00038 kPa and 0.00152 ± 0.00038 kPa and 0.00103 ± 0.00027 kPa
1399 K | 0.0026 ± 0.0007 kPa and 0.00175 ± 0.00048 kPa
1421 K | 0.0042 ± 0.0012 kPa and 0.00287 ± 0.0008 kPa
1433 K | 0.0054 ± 0.0016 kPa and 0.0037 ± 0.0011 kPa
1446 K | 0.0071 ± 0.0022 kPa and 0.0048 ± 0.0016 kPa
1470 K | 0.0116 ± 0.0037 kPa and 0.0114 ± 0.0037 kPa and 0.0079 ± 0.0026 kPa
1495 K | 0.0185 ± 0.0063 kPa and 0.0177 ± 0.006 kPa and 0.0127 ± 0.0043 kPa
1519 K | 0.029 ± 0.01 kPa and 0.027 ± 0.009 kPa and 0.0201 ± 0.0066 kPa
